Assay results from patent US10561633B2, “Hydroxyflavanones as appetite stimulants” (Symrise AG, priority 2014, dated 2020).
Marks after values point to notes of the source that are not given here.

Legend:
[1] = test system: serotonin plasma concentration; experiment: Absolute plasma serotonin concentration after oral administration of 30 mg of homoeriodictyol; format: in vivo, human; conditions: after oral administration of 30 mg in 125 ml of water, on average 35 minutes, healthy subjects, n=16; before administration 306 ± 152; p<0.05
Protocol: In order to determine the serotonin plasma concentration, whole blood is taken from healthy subjects on a test day before and on average 35 minutes after administration of 30 mg of homoeriodictyol dissolved in 125 ml of water. The plasma is obtained from the whole blood by refrigerated centrifugation for 15 minutes at 1800×g, and the serotonin concentration in the plasma is determined by an enzyme-based detection method (Serotonin-ELISA, DLD Diagnostika, Germany).
The change in the serotonin plasma concentration before and after administration of 30 mg of homoeriodictyol dissolved in 125 ml of water is shown in Table 3. There is a significant difference between the two treatments (p<0.05, n=16), which was determined by a dependent, two-sided Student's T-test and is marked *.

[2] = test system: 3T3-L1 adipocytes; experiment: Fatty acid uptake in 3T3-L1 adipocytes (QBT Fatty Acid Uptake kit); format: cell-based; conditions: 30 min preincubation, AUC of fluorescence over one hour vs EtOH control
Protocol: 3T3-L1 preadipocytes (ATCC CL-173) are used as the cell model for the uptake of free fatty acid into peripheral cells, here adipocytes. Cultivation is carried out at 37° C. and 5% CO2 content in DMEM culture medium to which 10% FBS 4% L-glutamine and 1% penicillin/streptomycin have been added. In order to measure the fatty acid uptake, the 3T3-L1 cells are differentiated in 175 cm^2 cell culture bottles from fully matured adipocytes. To that end, two days after reaching confluence, the cells are stimulated to differentiate for 48 hours by the addition of 10 μg/ml insulin, 1 μM dexamethasone and 0.5 mM isobutyl methyl xanthine from the culture medium. After the cells have been treated for a further 48 hours with 10 μg/ml insulin in the cell culture medium, normal culture medium is again used until the adipocytes are fully mature. The cells are usually used for the test seven to nine days after the onset of differentiation. To that end, the cells are harvested with trypsin and, after a positive vitality test with trypan blue, scattered in a 96-well plate at a rate of 65,000 cells per well. Measurement of the fatty acid uptake is carried out after a 60-minute synchronization of the cells by removal of the fetal bovine serum and a 30-minute preincubation with Hank's balanced salt solution, to which 20 mM HEPES (HBSS/HEPES), with or without the addition of from 0.01 to 10 μM of homoeriodictyol, by means of a fluorescence-labeled fatty acid analog (QBT Fatty Acid Uptake kit, Molecular Devices, Germany), have been added. The change in the area under the curve formed by the increase in the fluorescence signal over the course of one hour is shown in % in comparison with the control. The change in the fatty acid uptake in 3T3-L1 adipocytes after preincubation for 30 minutes with HESS/HEPES buffer with 0.1% ethanol (control) or 0.01-10 μM homoeriodictyol dissolved in HBSS/HEPES buffer is shown in Table 4. Significant differences (p<0.001) relative to the control were tested with a single-factor ANOVA against the control with a subsequent Dunn's post hoc test and are marked ***. Mean values from 3-4 independent experiments with in each case 3 repetitions are shown.

[3] = test system: serotonin plasma concentration; experiment: Change in serotonin plasma concentration of healthy subjects after oral homoeriodictyol (crossover human intervention); format: in vivo; conditions: 30 mg oral in 125 ml of water, on average 37 minutes after administration, n=10, water control −6.81 ± 10.6, p<0.05
Protocol: In order to determine the serotonin plasma concentration, whole blood is taken from healthy subjects in each case on a test day before and on average 37 minutes after administration of the test solution (1st test day: 125 ml of water; 2nd test day: 30 mg of homoeriodictyol dissolved in 125 ml of water).
The plasma is obtained from the whole blood by refrigerated centrifugation for 15 minutes at 1800×g, and the serotonin concentration in the plasma is determined by an enzyme-based detection method (Serotonin ELISA, DLD Diagnostika, Germany).
The change in the serotonin plasma concentration before and after administration of 125 ml of water or 30 mg of homoeriodictyol dissolved in 125 ml of water is shown in Table 2. There is a significant difference between the two treatments (p<0.05; n=10), which was determined by a dependent, two-sided Student's T-test and is marked *.

[4] = test system: Human neuroblastoma cells (SH-SY5Y); experiment: Serotonin release from SH-SY5Y cells (Serotonin-ELISA, normalised to DNA content); format: cell-based; conditions: 5 min stimulation, relative to control (0.1% EtOH)
Protocol: Human neuroblastoma cells (SH-SY5Y, ATCC number CRL-2266) are used as the cell model for the release of the neurotransmitter serotonin. Cultivation takes place at 37° C. and 5% CO2 content with a mixture consisting of equal parts of Eagle's minimal essential medium (MEM) and F12 medium (in each case with 10% FBS and 1 penicillin/streptomycin). For measurement of the serotonin release, the cells are harvested with trypsin and, after a vitality test by trypan blue staining, sown in 35 mm cell culture dishes in a defined cell number.
After stimulation of 1.25*10^6 human neuroblastoma cells (SH-SY5Y) for 5 minutes with 300 μl of Krebs-Ringer-HEPES buffer, 0.1% ascorbic acid, pH 6.2, with or without addition of the homoeriodictyol, wherein concentrations of 0.001 μM, 0.01 μM, 0.1 μM, 1 μM and 10 μM in the Krebs-Ringer-HEPES buffer are established when the homoeriodictyol is added, the serotonin content is determined by means of an enzyme-based detection method (Serotonin-ELISA sensitive, DLD Diagnostica, Hamburg, Germany). The cells are lyzed with a buffer containing sodium lauroyl sarcosinate and the DNA content is determined by means of a NanoQuant plate (Tecan, Ménnendorf, Switzerland) for normalization of the serotonin release.
The results are shown in % relative to the control (buffer with 0.1% ethanol). n=3, tR=2. Significant differences in the treatments relative to the control were tested with a single-factor ANOVA with a subsequent Holm-Sidak post hoc test against the control and marked according to the following scheme: * p≤0.05; ** p≤0.01; *** p≤0.001. Concentration-dependent differences were tested with a single-factor ANOVA with a subsequent Holm-Sidak post hoc test and identified by different letters (a, b), wherein no common letter marks a significant difference.

## COc1cc(C2CC(=O)c3c(O)cc(O)cc3O2)ccc1O (centres unmarked) [Homoeriodictyol, homoeriodictyol]
[1]
  Serotonin concentration in the plasma: 192 ± 122 nmol
[2]; 0.01 μM
  Change in fatty acid uptake: 4.34%
[2]; 0.1 μM, p<0.001
  Change in fatty acid uptake: 8.78*** %
[2]; 1 μM
  Change in fatty acid uptake: 4.10%
[2]; 10 μM
  Change in fatty acid uptake: −0.47%
[3]
  Change in the serotonin concentration in the plasma after administration of the test solution: −19.1 ± 10.6
[4]; 0.001 μM
  Serotonin release T/C: 62.2%
[4]; 0.01 μM
  Serotonin release T/C: 42.9%
[4]; 0.1 μM
  Serotonin release T/C: 42.6%
[4]; 1 μM
  Serotonin release T/C: 43.5%
[4]; 10 μM
  Serotonin release T/C: 71.9%
